Reference: patent US12076311B2, “Therapeutic compositions comprising deuterated or partially deuterated N,N-dimethyltryptamine compounds” (CYBIN UK LTD, priority 2019, dated 2024)

Columns and labels:
[1] = short-acting psychedelic; cited from earlier work
[2] = system: Human (mixed gender) hepatocytes pooled from 10 donors; assay: In vitro intrinsic clearance in human hepatocytes; assay type: in vitro ADME; settings: human hepatocytes 0.545 million cells/mL, 5 μM, up to 60 minutes at 37° C.; weighted by ratio of D0, D1 and D2
Procedure: To use human hepatocytes to assess the in vitro intrinsic clearance of deuterated DMT analogue blends relative to DMT.
Human (mixed gender) hepatocytes pooled from 10 donors (0.545 million cells/mL) were used to investigate the in vitro intrinsic clearance of DMT and 6 deuterated analogues.
A concentration of 5 μM was used for all test compounds, as well as sumatriptan, serotonin, benzylamine controls. This concentration was chosen in order to maximise the signal-to-noise ratio, while remaining under the Michaelis constant (Km) for the monoamine oxidase enzyme (MAO). Diltiazem and diclofenac controls were used at a laboratory-validated concentration of 1 μM.
Test compounds were mixed with the hepatocyte suspension within a 96-well plate and incubated for up to 60 minutes at 37° C. […] At 7 time points, small aliquots were withdrawn, and the test compound/blend concentration therein was measured by LC-MS/MS. The time points measured were 2, 4, 8, 15, 30, 45 and 60 minutes. […]
The resulting concentration-time profile was then used to calculate intrinsic clearance (CLint) and half-life (t½). […] Intrinsic clearance is calculated from the slope/elimination rate constant and the formula is CLint=(−1000*slope)/cell denisty in 1E6 cells/ml, to give units of microlitre/min/million cells.
Intrinsic clearance and half-life values were calculated for DMT and the 6 deuterated mixtures described above.

| Structure (SMILES) | duration of action [1] | Intrinsic clearance [2] |
| --- | --- | --- |
| CN(C)CCc1c[nH]c2ccccc12 [N,N-dimethyltryptamine (DMT)] | under 20 minutes |  |
| CN(C)CCc1c[nH]c2ccccc12 [DMT, N,N-dimethyltryptamine] |  | 13.77 μL/min/million cells |
